Results as given in US5196513A, “Synthetic peptides derived from the beta-subunit of human thyroid stimulating hormone” (Mayo Foundation for Medical Education and Research, priority 1991, dated 1993).
Residues, ends and D or L forms follow the SMILES beside them.

Key:
[1] = molecular target: T1, TSH receptor on human thyroid membranes (Homo sapiens, UniProt P16473); assay: Human thyroid membrane TSH radio-receptor assay (inhibition of 125I-bTSH binding); conditions: for EC50: concentration inhibiting 125I-bTSH binding to human thyroid membrane by 50%, mean ± se of at least 3 assays; for Inhibition of TSH binding to human thyroid membrane (in words): human thyroid membrane RRA
T1 construct: Crude membrane preparations were prepared from the frozen tissue; from tissue; host or cells: human thyroid tissue (Graves' disease patients), crude 2000 x g membrane fraction
Method: Thyroid tissue from patients with Graves' disease was obtained at surgery and promptly frozen and maintained at -70° C. Crude membrane preparations were prepared from the frozen tissue as previously described, Takahashi et al., J. Clin. Endocrinol. Metab., 47:870-876 (1978), the disclosure of which is incorporated by reference herein. Briefly, the tissue was homogenized with a Polytron homogenizer (Brinkmann Instruments,Westbury, N.Y.), and the 2000×g fraction was collected by centrifugation, washed, and resuspended in 40 mM Tris, 200 mM sucrose, pH 7.4. Membrane preparations were maintained at -70° C. until assay.
(§1) Highly purified bTSH (30 U/mg, supplied by Dr. J. G. Pierce, formerly of UCLA) was radio-iodinated (Na^125 I, Amersham, Chicago) by a lactoperoxidase technique to a specific activity averaging 40-50 μCi/μg as previously described, Takahashi et al., supra, then purified by Sephadex G-100 chromatography.
(§2) The TSH radio-receptor assay (RRA) utilized for the studies has been well described previously; see Takahashi et al., supra and Morris et al., Endocrinology, 123:456-462 (1988), the disclosure of which is incorporated by reference herein. Briefly, for either human or porcine thyroid RRA, the incubation mixture consisted of the following: 10 mg equivalents of wet weight (mg eq) crude thyroid membrane preparation, 0.124 ng [^125 I]iodo-bTSH (approximately 20,000 cpm), 0.2% Triton X-100, and the noted amounts of synthetic peptides or unlabeled bTSH in 0.5 ml 40 mM Tris, 0.1% BSA, pH 7.4. Bound label was separated from free after 2 hrs incubation at 25° C. by addition of a 1 ml 30% polyethylene glycol (PEG, Baker, Phillipsburg, N.J.) 6000 in 1M NaCl and centrifugation. The resulting pellet was counted in a gamma counter. Non-specific binding was determined by addition of a 100 mU/ml crude bTSH (Sigma, St. Louis).

[2] = molecular target: T2, porcine TSH receptor (porcine thyroid membranes) (Sus scrofa, UniProt Q8SPP9); assay: Porcine thyroid membrane TSH radio-receptor assay (inhibition of 125I-bTSH binding); conditions: concentration inhibiting 125I-bTSH binding to porcine thyroid membrane by 50%; mean ± se of at least 3 assays
T2 construct: Frozen porcine thyroid glands were purchased; tissue Pel-Freez Biologicals; host or cells: porcine thyroid glands, crude membrane preparation
From the text: Frozen porcine thyroid glands were purchased (Pel-Freez Biologicals, Rogers, Ak.) and prepared using the same procedures as for the human glands.
as §1, §2

FRTL5 cells = FRTL5 cells (Rattus norvegicus, UniProt P21463); assay: TSab bioassay, inhibition of TSab-stimulated cAMP generation in FRTL5 cells; type: cell-based; conditions: for Serum samples in which TSab-stimulated cAMP was significantly inhibited (p<0.05) / samples tested: peptide 150 μg/ml; for Inhibition of TSab-stimulated cAMP generation (in words): peptide 50 and 150 μg/ml
Method: FRTL5 cells were cultured in Hams F-12 medium supplemented with 5% calf serum and a preparation containing 6 hormones (6H), including 10 mU/ml bTSH (Sigma, St. Louis, Mo.), as previously described. Ambesi-Impiombato et al., Proc. Natl. Acad. Sci. U.S.A., 77:3455 (1980), the disclosure of which is incorporated by reference herein. The cells were enzymatically removed from flasks and plated in 24 well plates containing 6H at a density of 150,000 cells per well. After 4 days, the cells were washed and the media replaced with media containing insulin only (1H). All subsequent assays were performed on cells deprived of TSH for 5-7 days.
Serum samples from 15 patients with elevated TSab levels were selected from the clinical chemistry laboratory. The TSab values, expressed as an index, [formula] 63:707 (1988)]ranged from 10-20 with an average of 13.8±3.3. Normal serum has an index of less than 1.3.
The bioassay described by Kasagi et al., supra, with modifications as previously noted above, was used. The immunoglobulins were precipitated from 2 ml of TSab-containing serum with 6 ml of polyethylene glycol 6,000 (Baker; Phillipsburg, N.J.), centrifuged at 3,000×g for 20 minutes, and resuspended in 4 ml of NaCl-free HBSS with 0.5 mM IBMX and 0.5% BSA. The plated cells were washed with NaCl-free HBSS and the crude immunoglobulin extract, mixed with various concentrations of β-subunit peptides, was added in duplicate to the wells (total volume 200 μl/well). The cells were incubated for 2 hours at 37° C. and 5% CO2. The samples were then removed from the cells and a portion diluted 1:50 in NaOAc buffer, pH 6.2. A 25 μl aliquot of this was then used in a cAMP RIA as described above. The basal cAMP levels were determined for each plate of cells in the absence of immunoglobulin extract and β-peptides. A maximal cAMP level was attained by stimulating the cells with the immunoglobulin extract only. The percent increase in cAMP levels above basal was calculated as: [formula] as previously described (see Morris et al., supra). The percent inhibition of cAMP production by the β-subunit peptides was calculated as described above for TSH-stimulated cells, substituting pmol cAMP crude immunoglobulin for pmol cAMP TSH.
Inhibition of TSab activity was tested by comparing the replicates of cAMP levels generated in the presence of peptide to those generated by TSab alone using Student's T test for unpaired samples. Mean inhibition by the various doses of synthetic peptide for the patient group was tested by comparison with maximum cAMP response within each patient sample using the T test for paired samples.

FRTL5 cells, sequence (P21463 22-764): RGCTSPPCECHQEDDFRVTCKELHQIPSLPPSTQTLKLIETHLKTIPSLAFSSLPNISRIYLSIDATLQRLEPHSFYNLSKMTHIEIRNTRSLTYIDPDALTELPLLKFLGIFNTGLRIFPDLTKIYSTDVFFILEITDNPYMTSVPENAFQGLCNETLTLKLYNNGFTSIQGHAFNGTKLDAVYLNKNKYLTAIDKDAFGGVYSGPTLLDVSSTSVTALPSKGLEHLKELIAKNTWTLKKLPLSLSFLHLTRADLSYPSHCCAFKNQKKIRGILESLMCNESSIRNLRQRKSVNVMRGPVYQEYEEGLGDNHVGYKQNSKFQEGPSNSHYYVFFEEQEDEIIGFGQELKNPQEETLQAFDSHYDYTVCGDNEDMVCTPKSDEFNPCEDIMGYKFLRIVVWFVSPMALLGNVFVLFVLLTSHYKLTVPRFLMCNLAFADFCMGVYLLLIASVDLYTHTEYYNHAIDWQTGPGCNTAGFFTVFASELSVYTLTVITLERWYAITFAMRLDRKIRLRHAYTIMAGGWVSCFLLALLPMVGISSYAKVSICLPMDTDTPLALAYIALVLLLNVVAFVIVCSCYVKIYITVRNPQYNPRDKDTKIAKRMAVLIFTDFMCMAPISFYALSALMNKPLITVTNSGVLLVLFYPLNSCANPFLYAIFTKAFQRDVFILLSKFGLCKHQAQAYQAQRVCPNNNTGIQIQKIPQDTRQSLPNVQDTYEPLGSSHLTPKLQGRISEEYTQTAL
T2 sequence (Q8SPP9 22-764): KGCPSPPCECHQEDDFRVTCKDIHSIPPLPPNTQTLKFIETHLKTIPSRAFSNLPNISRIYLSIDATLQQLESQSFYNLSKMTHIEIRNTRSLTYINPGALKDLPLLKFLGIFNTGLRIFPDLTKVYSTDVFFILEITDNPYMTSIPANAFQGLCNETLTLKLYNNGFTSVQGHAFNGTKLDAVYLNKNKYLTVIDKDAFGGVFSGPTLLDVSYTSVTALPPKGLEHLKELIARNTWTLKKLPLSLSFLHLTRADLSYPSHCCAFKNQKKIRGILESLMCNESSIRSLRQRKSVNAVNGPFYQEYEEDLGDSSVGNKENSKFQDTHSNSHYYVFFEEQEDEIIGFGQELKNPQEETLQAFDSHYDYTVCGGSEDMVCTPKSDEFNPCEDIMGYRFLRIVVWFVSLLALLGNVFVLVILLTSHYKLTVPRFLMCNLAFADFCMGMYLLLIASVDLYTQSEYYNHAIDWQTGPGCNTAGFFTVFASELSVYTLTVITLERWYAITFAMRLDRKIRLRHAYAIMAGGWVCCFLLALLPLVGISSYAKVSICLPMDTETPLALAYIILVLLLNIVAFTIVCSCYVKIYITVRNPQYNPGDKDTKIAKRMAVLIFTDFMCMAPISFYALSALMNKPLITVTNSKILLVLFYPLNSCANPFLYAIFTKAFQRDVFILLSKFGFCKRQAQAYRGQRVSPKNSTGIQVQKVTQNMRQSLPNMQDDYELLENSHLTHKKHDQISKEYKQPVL
T1 sequence (P16473 21-764): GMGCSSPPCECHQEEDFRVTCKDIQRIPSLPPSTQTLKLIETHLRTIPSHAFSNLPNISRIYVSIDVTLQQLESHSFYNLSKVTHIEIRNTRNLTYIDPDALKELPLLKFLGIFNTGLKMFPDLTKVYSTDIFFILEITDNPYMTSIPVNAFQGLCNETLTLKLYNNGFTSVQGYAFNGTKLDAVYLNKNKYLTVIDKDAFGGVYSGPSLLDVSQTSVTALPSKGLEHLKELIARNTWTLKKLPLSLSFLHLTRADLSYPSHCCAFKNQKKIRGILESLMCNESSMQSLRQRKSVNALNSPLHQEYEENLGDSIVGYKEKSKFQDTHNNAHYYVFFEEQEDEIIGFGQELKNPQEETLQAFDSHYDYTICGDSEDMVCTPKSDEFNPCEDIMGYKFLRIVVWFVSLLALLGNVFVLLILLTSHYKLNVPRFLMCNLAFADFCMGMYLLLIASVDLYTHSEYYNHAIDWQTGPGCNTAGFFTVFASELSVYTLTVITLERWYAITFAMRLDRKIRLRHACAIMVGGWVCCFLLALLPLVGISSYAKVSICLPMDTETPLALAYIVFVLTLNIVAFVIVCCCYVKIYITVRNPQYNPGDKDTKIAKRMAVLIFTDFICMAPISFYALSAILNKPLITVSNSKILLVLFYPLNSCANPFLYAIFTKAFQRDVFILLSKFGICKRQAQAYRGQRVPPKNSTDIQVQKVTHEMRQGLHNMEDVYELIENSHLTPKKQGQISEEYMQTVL

Row | Compound | EC50 [1] | Inhibition of TSH binding to human thyroid membrane (in words) [1] | EC50 [2] | Serum samples in which TSab-stimulated cAMP was significantly inhibited (p<0.05) / samples tested (FRTL5 cells) | Inhibition of TSab-stimulated cAMP generation (in words) (FRTL5 cells) | Inhibition of TSab-stimulated cAMP generation (in words) (FRTL5 cells; listed as 71-85)
1 | CC[C@H](C)[C@H](N)C(=O)N[C@@H](CCC(=O)O)C(=O)N[C@@H](CCCNC(=N)N)C(=O)N[C@@H](CCCNC(=N)N)C(=O)N[C@@H](CCC(=O)O)C(=O)N[C@@H](CS)C(=O)N[C@@H](C)C(=O)N[C@@H](Cc1ccc(O)cc1)C(=O)N[C@@H](CS)C(=O)N[C@@H](CC(C)C)C(=O)N[C@H](C(=O)N[C@H](C(=O)N[C@@H](CC(N)=O)C(=O)N[C@H](C(=O)N[C@H](C(N)=O)[C@@H](C)O)[C@@H](C)O)[C@@H](C)CC)[C@@H](C)O [β11-25] (H-IERRECAYCLTINTT-NH2) | > 1000 µM | inactive | 186 ± 28 µM | – | – | –
2 | CC[C@H](C)[C@H](NC(=O)[C@@H](N)[C@@H](C)O)C(=O)N[C@@H](CC(N)=O)C(=O)N[C@H](C(=O)N[C@H](C(=O)N[C@H](C(=O)N[C@@H](CS)C(=O)N[C@@H](C)C(=O)NCC(=O)N[C@@H](Cc1ccc(O)cc1)C(=O)N[C@@H](CS)C(=O)N[C@@H](CCSC)C(=O)N[C@H](C(=O)N[C@@H](CCCNC(=N)N)C(=O)N[C@@H](CC(=O)O)C(N)=O)[C@@H](C)O)[C@@H](C)CC)[C@@H](C)O)[C@@H](C)O [β21-35] (H-TINTTICAGYCMTRD-NH2) | > 1000 µM | – | > 1000 µM | – | – | –
3 | CC[C@H](C)[C@H](NC(=O)[C@H](CC(=O)O)NC(=O)[C@H](CCCNC(=N)N)NC(=O)[C@@H](NC(=O)[C@H](CCSC)NC(=O)[C@@H](N)CS)[C@@H](C)O)C(=O)N[C@@H](CC(N)=O)C(=O)NCC(=O)N[C@@H](CCCCN)C(=O)N[C@@H](CC(C)C)C(=O)N[C@@H](Cc1ccccc1)C(=O)N[C@@H](CC(C)C)C(=O)N1CCC[C@H]1C(=O)N[C@@H](CCCCN)C(=O)N[C@@H](Cc1ccc(O)cc1)C(N)=O [β31-45] (H-CMTRDINGKLFLPKY-NH2) | 186 ± 25 µM | – | 200 ± 36 µM | – | – | –
4 | CC(C)C[C@H](NC(=O)[C@H](C)NC(=O)[C@H](Cc1ccc(O)cc1)NC(=O)[C@H](CCCCN)NC(=O)[C@@H]1CCCN1C(=O)[C@H](CC(C)C)NC(=O)[C@@H](N)Cc1ccccc1)C(=O)N[C@@H](CO)C(=O)N[C@@H](CCC(N)=O)C(=O)N[C@@H](CC(=O)O)C(=O)N[C@H](C(=O)N[C@@H](CS)C(=O)N[C@H](C(=O)N[C@@H](Cc1ccc(O)cc1)C(=O)N[C@@H](CCCNC(=N)N)C(N)=O)[C@@H](C)O)C(C)C [β41-55] (H-FLPKYALSQDVCTYR-NH2) | 242 ± 58 µM | – | 216 ± 18 µM | – | – | –
5 | CC[C@H](C)[C@H](NC(=O)[C@H](Cc1ccccc1)NC(=O)[C@H](CC(=O)O)NC(=O)[C@H](CCCNC(=N)N)NC(=O)[C@H](Cc1ccc(O)cc1)NC(=O)[C@@H](NC(=O)[C@H](CS)NC(=O)[C@@H](N)C(C)C)[C@@H](C)O)C(=O)N[C@@H](Cc1ccc(O)cc1)C(=O)N[C@@H](CCCNC(=N)N)C(=O)N[C@H](C(=O)N[C@H](C(=O)N[C@@H](CCC(=O)O)C(=O)N[C@H](C(=O)N1CCC[C@H]1C(N)=O)[C@@H](C)CC)C(C)C)[C@@H](C)O [β51-65] (H-VCTYRDFIYRTVEIP-NH2) | > 1000 µM | – | > 1000 µM | – | – | –
6 | CC[C@H](C)[C@H](NC(=O)[C@H](CCC(=O)O)NC(=O)[C@@H](NC(=O)[C@@H](N)[C@@H](C)O)C(C)C)C(=O)N1CCC[C@H]1C(=O)NCC(=O)N[C@@H](CS)C(=O)N1CCC[C@H]1C(=O)N[C@@H](CC(C)C)C(=O)N[C@@H](Cc1c[nH]cn1)C(=O)N[C@H](C(=O)N[C@@H](C)C(=O)N1CCC[C@H]1C(=O)N[C@@H](Cc1ccc(O)cc1)C(=O)N[C@@H](Cc1ccccc1)C(N)=O)C(C)C [β61-75] (H-TVEIPGCPLHVAPYF-NH2) | > 1000 µM | – | > 1000 µM | – | – | –
7 | CC(C)C[C@H](NC(=O)[C@H](C)NC(=O)[C@@H](NC(=O)[C@@H]1CCCN1C(=O)[C@H](Cc1ccc(O)cc1)NC(=O)[C@H](CO)NC(=O)[C@H](Cc1ccccc1)NC(=O)[C@H](Cc1ccc(O)cc1)NC(=O)[C@@H]1CCCN1C(=O)[C@H](C)NC(=O)[C@@H](N)C(C)C)C(C)C)C(=O)N[C@@H](CO)C(=O)N[C@@H](CS)C(=O)N[C@@H](CCCCN)C(=O)N[C@@H](CS)C(N)=O [β71-85] (H-VAPYFSYPVALSCKC-NH2; N-terminus assumed) | – | inhibit binding of TSH to human thyroid membrane | – | 1/5 | significant inhibition only at the highest concentration | effective only at the highest dose
8 | CC[C@H](C)[C@H](NC(=O)[C@H](C)NC(=O)[C@H](CCC(=O)O)NC(=O)[C@H](Cc1c[nH]cn1)NC(=O)[C@@H](NC(=O)[C@H](CS)NC(=O)[C@H](CC(=O)O)NC(=O)[C@H](CO)NC(=O)[C@H](Cc1ccc(O)cc1)NC(=O)[C@@H](N)CC(=O)O)[C@@H](C)CC)C(=O)N[C@@H](CCCCN)C(=O)N[C@H](C(=O)N[C@@H](CC(N)=O)C(=O)N[C@@H](Cc1ccc(O)cc1)C(=O)N[C@@H](CS)C(N)=O)[C@@H](C)O [β91-105] (H-DYSDCIHEAIKTNYC-NH2; N-terminus assumed) | – | – | – | 1/12 | did not inhibit TSab activity | –
